Results taken from ChEMBL document CHEMBL4043258, “Polycyclic polyprenylated acylphloroglucinol derivatives from Hypericum scabrum” (2017).

Test system: HepG2
Test: Hepatoprotective activity in human HepG2 cells assessed as inhibition of paracetamol-induced reduction in cell viability at 10 uM pretreated for 1 hr followed by paracetamol addition after 24 hrs by MTT assay relative to control
Format: functional

SMILES	inhibition at 10 µM
CC[C@H](C)C(=O)[C@]12C(=O)[C@](C)(C[C@H](CC=C(C)C)[C@@]1(C)CCC=C(C)C)C(=O)C1=C2O[C@H](C(C)(C)O)C1	15%
CC(=O)CC1C2CC3(CC=C(C)C)C(=O)C1(C(=O)c1ccccc1)C(=O)C(CC=C(C)C)(C3=O)C2(C)C (stereo not given)	13.9%
CC(C)=CC[C@H]1C[C@]2(CC=C(C)C)C(=O)C3=C(O[C@H](C(C)(C)O)C3)[C@@](C(=O)c3ccccc3)(C2=O)C1(C)C	19.5%
CC(C)=CC[C@H]1C[C@@]23C[C@H](C(C)(C)O)OC2=C(C(=O)c2ccccc2)C(=O)[C@](C(=O)c2ccccc2)(C3=O)C1(C)C	13.4%
COC(=O)[C@]1(CC=C(C)C)C[C@@H](CC=C(C)C)C(C)(C)[C@@H](C(=O)c2ccccc2)C1=O	32.3%
CC(C)=CC[C@@H]1C[C@@]2(CC=C(C)C)C(=O)[C@](C(=O)c3ccccc3)(C(=O)C3=C2O[C@H](C(C)(C)O)C3)C1(C)C	24.5%
CC(C)=CCC1=C2O[C@@H](C(C)(C)O)C[C@@]23C[C@@H](CC=C(C)C)C(C)(C)[C@@](C(=O)c2ccccc2)(C1=O)C3=O	-9.68%
CC(C)=CC[C@H]1C[C@@]2(CC=C(C)C)C(=O)C3=C(O[C@H](C(C)(C)O)C3)[C@](C(=O)c3ccccc3)(C2=O)C1(C)C	40.4%
CC(C)=CC[C@H]1C[C@@H](CC=C(C)C)C(C)(C)C(C(=O)c2ccccc2)C1=O (single isomer, unassigned)	45%
COC(=O)c1cc(OC)c2c(c1-c1c(CO)cc(OC)c3c1OCO3)OCO2 [BICYCLOL]	28.3%
